In patent US20250332096A1, “BEVERAGE FORMULATION AND METHOD OF PROMOTING CELLULAR HYDRATION BY ENHANCING INTRACELLULAR PERMEATION” (Eastpond Laboratories Limited, priority 2024, published 2025):

Legend:
[1] = Surface tension of test solutions; type: physicochemical; settings: purified water
Experimental: (§1) 1:1 mol/mol stoichiometry complexes were prepared for the experiment. Nicotinic acid/alpha-CD complex was prepared by dissolving 11.22 g nicotinic acid and 98.63 g alpha-CD (89.66 g on dry basis) in 700 ml purified water. Nicotinamide/alpha-CD complex was prepared by dissolving 5.57 g nicotinamide and 49.3 g alpha-CD (44.4 g on dry basis) in 350 ml purified water and L-arginine/alpha-CD complex was prepared by dissolving 15.18 g L-arginine and 94.26 g alpha-CD (85.69 g on dry basis) in 700 ml purified water. Further, for all the three complexes, the liquid was frozen in dry ice bath and lyophilized. The dry lyophilizate was ground and sieved.
(§2) Clarity, pH, conductivity, density, viscosity, turbidity, surface tension and osmolality were determined in solutions prepared with purified water. […]

[2] = test system: Wheat seeds (Triticum aestivum); assay: Wheat seed germination; type: in vivo; settings: 0.5% w/w in USA I water
Experimental: Wheat seeds (Triticum aestivum) were germinated using USA I, USA II, and BP I waters described for Example 2. Germination rate using un-supplemented (control) water was compared to that with the same water variously supplemented with a cyclodextrin component, and/or a bioactive agent, as an active component of cellular hydration. For each condition, ten seeds were placed in continuous water contact in a Petri-type dish kept at 25 C in 12 hr light/dark cycles. Photometric images were recorded on days 1 to 6 after seeding. The percentage of seeds germinated was calculated and compared as a function of time and of the applied additive concentrations.
Water samples for seed germination were used alone with no additive, or containing cyclodextrins, or containing clathrate inclusion complexes of cyclodextrin with L-arginine or with nicotinamide (both obtained from Sigma Chemical Co.; St. Louis, MO), or with L-carnitine (from Lonza AG; Switzerland). […] Additive solutions were prepared fresh on the day of germination start.
Parent cyclodextrins α-cyclodextrin (ACD), β-cyclodextrin (BCD), and γ-cyclodextrin (GCD), were obtained from Wacker Chemie (Munich, Germany). The following derivatized cyclodextrins were obtained from Cyclolab Ltd. (Budapest, Hungary): hydroxypropylated-beta-cyclodextrin (DS-3)(HPBCD), carboxymethylated-β-cyclodextrin (DS-3.5)(CMBCD), 2-hydroxy-3-N,N,N-trimethylamino)propyl-β-cyclodextrin chloride (DS-3.6)(QABCD).
Germination kinetics in control and additive-modified water under identical conditions were quantified as the percentage of the seeds having a sprout. Each determination consisted of 100 seeds for each parameter. Results are reported in Table 5, below, and in FIGS. 11-13. • A) Cyclodextrin/L-Arg Inclusion Complex Increases Seed Germination.

pH of test solutions = type: physicochemical; settings: purified water
Experimental: as §1, §2

[3] = Osmolality of test solutions; type: physicochemical; settings: purified water
Experimental: as §1, §2

C. elegans [4] = assay: C. elegans lifespan Test B (Example 6); type: in vivo
Experimental: C. elegans study performed for the present disclosure is a follow-up and repetition of the observations carried out earlier (referred as Test A here). The results of the current C. elegans study (Test B) were recorded with higher number of animals compared to the Test A (50 worms per treated groups versus 130 worms per groups). Nematodes were maintained and propagated on Nematode Growth Medium—(NGM) containing plates and fed with Escherichia coli OP50 bacteria. The C. elegans strain used in this study is Bristol (N2) as wild-type. FIG. 21, illustrates the lifespan of control and alpha-cyclodextrin-treated worms. The control C. elegans lived on a medium made with tap water. The treated worms were maintained on culture media made with 0.1% alpha-cyclodextrin, 0.1% alpha-CD/nicotinic acid and 0.1% alpha-CD/arginine complex containing tap water.

[5] = Conductivity of test solutions; type: physicochemical; settings: purified water
Experimental: as §1, §2

C. elegans [6] = assay: C. elegans lifespan Test A (observations carried out earlier); type: in vivo; settings: day 15, 0.1%, 50 worms per group
Experimental: C. elegans study performed for the present disclosure is a follow-up and repetition of the observations carried out earlier (referred as Test A here). The results of the current C. elegans study (Test B) were recorded with higher number of animals compared to the Test A (50 worms per treated groups versus 130 worms per groups). Nematodes were maintained and propagated on Nematode Growth Medium—(NGM) containing plates and fed with Escherichia coli OP50 bacteria. The C. elegans strain used in this study is Bristol (N2) as wild-type.

[7] = Turbidity of test solutions; type: physicochemical; settings: purified water (reference), 0.05%
Experimental: as §1, §2

[8] = Visual inspection (clarity) of test solutions; type: physicochemical; settings: purified water
Experimental: as §1, §2

- Surface Tension ([1]; 0.05%): 72 mN · m^−1
- Surface Tension ([1]; 0.10%): 72 mN · m^−1
- Surface Tension ([1]; 1.00%): 72 mN · m^−1
- Surface Tension ([1]; 2.00%): 73 mN · m^−1
- pH (pH of test solutions; 0.05%): 6.20
- pH (pH of test solutions; 0.10%): 6.36
- pH (pH of test solutions; 1.00%): 6.55
- pH (pH of test solutions; 2.00%): 6.70
- Osmolality ([3]; 0.05%): 0 mOsm/kg
- Osmolality ([3]; 0.10%): 2 mOsm/kg
- Osmolality ([3]; 2.00%): 18 mOsm/kg
- Conductivity ([5]; 0.05%): 35.3 μS · cm^−1
- Conductivity ([5]; 0.10%): 39.0 μS · cm^−1
- Turbidity (Abs, λ = 410 nm) [7]: 0.003 Abs
- Visual Inspection ([8]; 0.05%): clear
- Visual Inspection ([8]; 0.10%): clear
- Visual Inspection ([8]; 1.00%): clear
- Visual Inspection ([8]; 2.00%): clear
SMILES: OC[C@H]1O[C@@H]2O[C@H]3[C@H](O)[C@@H](O)[C@@H](O[C@H]4[C@H](O)[C@@H](O)[C@@H](O[C@H]5[C@H](O)[C@@H](O)[C@@H](O[C@H]6[C@H](O)[C@@H](O)[C@@H](O[C@H]7[C@H](O)[C@@H](O)[C@@H](O[C@H]1[C@H](O)[C@H]2O)O[C@@H]7CO)O[C@@H]6CO)O[C@@H]5CO)O[C@@H]4CO)O[C@@H]3CO [Alpha Cyclodextrin, α-cyclodextrin]
- wheat seed germination, percentage of the seeds having a sprout ([2]; day 0): 0%
- wheat seed germination, percentage of the seeds having a sprout ([2]; day 1): 11%
- wheat seed germination, percentage of the seeds having a sprout ([2]; day 2): 18%
- wheat seed germination, percentage of the seeds having a sprout ([2]; day 3): 68%
- wheat seed germination, percentage of the seeds having a sprout ([2]; day 4): 92%
- Fraction of worms alive (C. elegans [4]; Test B, day 15, 0.1%, 130 worms per group, tap water media): 20%
- effect on lifespan (C. elegans [4]; all three studied concentrations (0.05, 0.1, 0.5%)): significant
- average lifespan (C. elegans [4]; control animals 12.33 days): 13.25 days
- Fraction of worms alive (C. elegans [6]): 25%
